Reference: patent US12448388B2, “PRMT5 inhibitors and uses thereof” (Gilead Sciences, Inc., priority 2023, dated 2025)

Tested on: HCT116 MTAP-deleted cell lines
Assay: Cell viability assay (CellTiter-Glo, 7 days), HCT116 MTAP-deleted
Type: cell-based
Settings: Homo sapiens, HCT-116
Procedure, shortened: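 Each PRMT5 inhibitor was tested as a dose response alongside tool compounds on the same plate. Incubation ran 7 days at 37 °C under 5% CO2, after which CellTiter-Glo luminescence was recorded and CC50 calculated.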

SMILES | CC50 [nM]
Nc1nc2cc(F)c(C(=O)N3CC4(CC[C@H]3c3ccc(C(F)(F)F)cc3)CC4)cc2n2cncc12 (single isomer, unassigned) [Ff-155] | 100 to 1000

Same assay, conditions: Homo sapiens, HCT-116; cell viability assay, HCT116 MTAP-deleted; class symbols; read-out: CC50

SMILES | CC50 [nM]
CN(C(=O)c1cc2c(cc1F)nc(N)c1cncn12)[C@@H]1COc2cc(C3CCOC3)ccc21 (mixture of isomers) [Ff-484, Rac-4-amino-7-fluoro-N-methyl-N-((3S)-6-(tetrahydrofuran-3-yl)-2,3-dihydrobenzofuran-3-yl)imidazo[1,5-a]quinoxaline-8-carboxamide] | < 100
CC(C)N(Cc1ccc(-c2cnn(-c3ccccc3)c2)cc1F)C(=O)c1cc2c(cc1F)nc(N)c1cncn12 [Ff-593, 4-amino-7-fluoro-N-(2-fluoro-4-(1-phenyl-1H-pyrazol-4-yl)benzyl)-N-isopropylimidazo[1,5-a]quinoxaline-8-carboxamide] | < 100
Cc1ncc2c(N)nc3cnc(C(=O)N4CC[C@H]5C[C@@H]4c4ccc(C(F)(F)F)cc4O5)cc3n12 [Ff-369, (4-amino-1-methylimidazo[1,5-a]pyrido[3,4-e]pyrazin-8-yl)((2S,6R)-9-(trifluoromethyl)-3,4-dihydro-2H-2,6-methanobenzo[b][1,5]oxazocin-5(6H)-yl)methanone] | < 100
Nc1nc2cc(F)c(C(=O)N3CCO[C@@H]4Cc5c(ccc(C(F)(F)F)c5F)[C@@H]43)cc2n2cncc12 [Ff-691, (4-amino-7-fluoroimidazo[1,5-a]quinoxalin-8-yl)((4aS,9aR)-8-fluoro-7-(trifluoromethyl)-2,3,9,9a-tetrahydroindeno[2,1-b][1,4]oxazin-4(4aH)-yl)methanone] | 100 to 1000
CN(C(=O)c1cc2c(cc1F)nc(N)c1cncn12)[C@@H]1COc2cc([C@@H]3C[C@H]3C#N)ccc21 (single isomer, unassigned) [Ff-480] | < 100
C[C@H](c1ccc(C(F)(F)F)cc1F)N(C)C(=O)c1cc2c(cc1F)nc(N)c1cncn12 [Ff-534, (R)-4-amino-7-fluoro-N-(1-(2-fluoro-4-(trifluoromethyl)phenyl)ethyl)-N-methylimidazo[1,5-a]quinoxaline-8-carboxamide] | < 100
Cc1ncc2c(N)nc3cnc(C(=O)N(C)[C@@H]4COc5cc(C(F)(F)F)ccc54)cc3n12 [Ff-509, (S)-4-amino-N,1-dimethyl-N-(6-(trifluoromethyl)-2,3-dihydrobenzofuran-3-yl)imidazo[1,5-a]pyrido[3,4-e]pyrazine-8-carboxamide] | < 100
CN(Cc1ccc(C(F)(F)F)cc1F)C(=O)c1ccc2nc(N)c3cncn3c2c1 [Ff-411, 4-amino-N-[[2-fluoro-4-(trifluoromethyl)phenyl]methyl]-N-methyl-imidazo[1,5-a]quinoxaline-8-carboxamide] | 100 to 1000
Nc1nc2ccc(C(=O)N3CCC[C@@H]4Oc5cc(OC(F)(F)F)ccc5[C@@H]43)cc2n2cncc12 [Ff-383, (4-aminoimidazo[1,5-a]quinoxalin-8-yl)((4aS,9bS)-7-(trifluoromethoxy)-3,4,4a,9b-tetrahydrobenzofuro[3,2-b]pyridin-1(2H)-yl)methanone] | < 100
Cc1ncc2c(N)nc3cc(F)c(C(=O)N(C)[C@@H]4COc5cc(OC(F)(F)F)ccc54)cc3n12 [Ff-564, (S)-4-amino-7-fluoro-N,1-dimethyl-N-(6-(trifluoromethoxy)-2,3-dihydrobenzofuran-3-yl)imidazo[1,5-a]quinoxaline-8-carboxamide] | < 100
CN(C(=O)c1cc2c(cc1Cl)nc(N)c1cncn12)[C@@H]1COc2cc(C(C)(F)F)ccc21 [Ff-508, (S)-4-amino-7-chloro-N-(6-(1,1-difluoroethyl)-2,3-dihydrobenzofuran-3-yl)-N-methylimidazo[1,5-a]quinoxaline-8-carboxamide] | < 100
Cc1ncc2c(N)nc3cnc(C(=O)N4CCC5(CC5)[C@@H]5Oc6cc(C(F)(F)F)ccc6[C@@H]54)cc3n12 [Ff-679, (4-amino-1-methylimidazo[1,5-a]pyrido[3,4-e]pyrazin-8-yl)((4aS,9bS)-7-(trifluoromethyl)-2,3,4a,9b-tetrahydro-1H-spiro[benzofuro[3,2-b]pyridine-4,1′-cyclopropan]-1-yl)methanone] | < 100
Nc1nc2cc(F)c(C(=O)N3CCOC[C@@H]3c3ccc(C(F)(F)F)cn3)cc2n2cncc12 (single isomer, unassigned) [Ff-547] | < 100
CN(C(=O)c1cc2c(cc1F)nc(N)c1cncn12)C1CCCc2cc(Cl)ccc21 (stereo not drawn) [Ff-425, 4-amino-N-(6-chloro-1,2,3,4-tetrahydronaphthalen-1-yl)-7-fluoro-N-methylimidazo[1,5-a]quinoxaline-8-carboxamide] | 100 to 1000
Nc1nc2cc(F)c(C(=O)N3CCCC[C@@H]3c3ccc(S(F)(F)(F)(F)F)cc3)cc2n2cncc12 [Ff-404, (R)-(4-amino-7-fluoroimidazo[1,5-a]quinoxalin-8-yl)(2-(4-(pentafluoro-λ^6-sulfaneyl)phenyl)piperidin-1-yl)methanone] | < 100
Nc1nc2cc(F)c(C(=O)N3CC[C@H]4C[C@@H]3c3ccc(OC(F)(F)F)cc3O4)cc2n2cncc12 (racemic) [Ff-372, Rac-(4-amino-7-fluoroimidazo[1,5-a]quinoxalin-8-yl)((2S,6R)-9-(trifluoromethoxy)-3,4-dihydro-2H-2,6-methanobenzo[b][1,5]oxazocin-5(6H)-yl)methanone] | < 100
Cc1ncn2c1c(N)nc1cnc(C(=O)N3[C@H](C)CC[C@@H]4Oc5cc(C(F)(F)F)ccc5[C@@H]43)cc12 (single isomer, unassigned) [Ff-611] | < 100
Cc1ncc2c(N)nc3cnc(C(=O)N4C(C)CCC5Oc6cc(C(F)(F)F)ccc6C54)cc3n12 (racemic) [Ff-586, Rac-(4-amino-1-methylimidazo[1,5-a]pyrido[3,4-e]pyrazin-8-yl)(2-methyl-7-(trifluoromethyl)-3,4,4a,9b-tetrahydrobenzofuro[3,2-b]pyridin-1(2H)-yl)methanone] | < 100
CN(Cc1ccc([C@@H]2C[C@H]2c2ccn(C(F)F)n2)cc1F)C(=O)c1cc2c(cc1F)nc(N)c1cncn12 [Ff-429, 4-amino-N-[[4-[(1R,2R)-2-[1-(difluoromethyl)pyrazol-3-yl]cyclopropyl]-2-fluoro-phenyl]methyl]-7-fluoro-N-methyl-imidazo[1,5-a]quinoxaline-8-carboxamide] | < 100

Same assay, conditions: Homo sapiens, HCT-116; cell viability, HCT116 MTAP-deleted; class symbols; read-out: CC50

SMILES | CC50 [nM]
CN(C(=O)c1cc2c(cc1F)nc(N)c1cncn12)[C@@H]1COc2cc(-c3cnn(C)c3)ccc21 [Ff-214, (S)-4-amino-7-fluoro-N-methyl-N-(6-(1-methyl-1H-pyrazol-4-yl)-2,3-dihydrobenzofuran-3-yl)imidazo[1,5-a]quinoxaline-8-carboxamide] | < 100
COc1ccc2c(c1)CO[C@H]1CCN(C(=O)c3cc4c(cc3F)nc(N)c3cncn34)[C@@H]21 (racemic) [Ff-67, Rac-(4-amino-7-fluoroimidazo[1,5-a]quinoxalin-8-yl)((3aS,9bS)-7-methoxy-3,3a,5,9b-tetrahydroisochromeno[4,3-b]pyrrol-1(2H)-yl)methanone] | 100 to 1000
Nc1nc2cc(Cl)c(C(=O)N3CC[C@H]4C[C@@H]3c3ccc(C(F)(F)F)nc34)cc2n2cncc12 (racemic) [Ff-91, Rac-(4-amino-7-chloroimidazo[1,5-a]quinoxalin-8-yl)((5R,9S)-2-(trifluoromethyl)-5,7,8,9-tetrahydro-6H-5,9-methanopyrido[3,2-c]azepin-6-yl)methanone] | < 100
Nc1nc2cc(F)c(C(=O)N3CCC[C@@H]4Oc5cc(OC(F)(F)F)cc(F)c5[C@@H]43)cc2n2cncc12 (racemic) [Ff-350, Rac-(4-amino-7-fluoroimidazo[1,5-a]quinoxalin-8-yl)((4aS,9bS)-9-fluoro-7-(trifluoromethoxy)-3,4,4a,9b-tetrahydrobenzofuro[3,2-b]pyridin-1(2H)-yl)methanone] | < 100
Cc1ncc2c(N)nc3ccc(C(=O)N(C)[C@@H]4COc5c4ccc(C(F)(F)F)c5F)cc3n12 [Ff-355, (S)-4-amino-N-(7-fluoro-6-(trifluoromethyl)-2,3-dihydrobenzofuran-3-yl)-N,1-dimethylimidazo[1,5-a]quinoxaline-8-carboxamide] | 100 to 1000
C[C@H]1CN(C(=O)c2ccc3nc(N)c4cncn4c3c2)[C@H]2c3ccc(C(F)(F)F)cc3C[C@H]2O1 [Ff-89, (4-aminoimidazo[1,5-a]quinoxalin-8-yl)((2S,4aS,9aR)-2-methyl-7-(trifluoromethyl)-2,3,9,9a-tetrahydroindeno[2,1-b][1,4]oxazin-4(4aH)-yl)methanone] | < 100
C[C@H](C(=O)N(C)C)N(Cc1ccc(C(F)(F)F)cc1F)C(=O)c1cc2c(cc1F)nc(N)c1cncn12 [Ff-69, 4-amino-N-[(1R)-2-(dimethylamino)-1-methyl-2-oxo-ethyl]-7-fluoro-N-[[2-fluoro-4-(trifluoromethyl)phenyl]methyl]imidazo[1,5-a]quinoxaline-8-carboxamide] | 100 to 1000
Cn1cc(N(Cc2ccc(C(F)(F)F)cn2)C(=O)c2cc3c(cc2F)nc(N)c2cncn23)cn1 [Ff-46, 4-amino-7-fluoro-N-(1-methyl-1H-pyrazol-4-yl)-N-((5-(trifluoromethyl)pyridin-2-yl)methyl)imidazo[1,5-a]quinoxaline-8-carboxamide] | < 100
Cc1ncc2c(N)nc3ccc(C(=O)N4C[C@H](C)O[C@@H]5Cc6cc(OC(F)(F)F)ccc6[C@@H]54)cc3n12 (single isomer, unassigned) [Ff-190] | 100 to 1000
CN(C(=O)c1cc2c(cc1F)nc(N)c1cncn12)[C@@H]1COc2cc(-c3ccc(C(F)(F)F)cc3)ccc21 [Ff-230, (S)-4-amino-7-fluoro-N-methyl-N-(6-(4-(trifluoromethyl)phenyl)-2,3-dihydrobenzofuran-3-yl)imidazo[1,5-a]quinoxaline-8-carboxamide] | 100 to 1000
